Assay results: PMC4931907 (eLife, 2016)

How the values were obtained:
PCAF = biological target: T1, PCAF (Homo sapiens, UniProt Q92831); experiment: In vitro HAT assay with recombinant PCAF, histones and 14C acetyl-CoA; type: biochemical
T1 construct: purchased Enzo Life Sciences
Description: (§1) To determine whether salicylate inhibits p300 and other acetyltransferases, we used in vitro acetylation assays with purified histones and a recombinant p300 catalytic domain.
(§2) Figure 1. Salicylate inhibits CBP/p300 in vitro. (A) Recombinant p300, CBP, GCN5, or PCAF and histones were incubated with ^14C-labeled acetyl-CoA with or without sodium salicylate, separated by SDS-PAGE, analyzed by autoradiography, and quantified with Image J software. Acetylation levels are relative to those in untreated controls. (B) Thermal stability assay for sodium salicylate binding to the p300 HAT domain. Tm, melting temperature. […] Histone acetylation was measured with several concentrations of acetyl-CoA (C) or histone (D) in the presence or absence of sodium salicylate. […] Acetylation of an H4(3–14) peptide was monitored using direct microfluidic mobility shift analysis as previously described ([Montgomery et al., 2014]; [Fanslau et al., 2010]). […]
(§3) Recombinant HAT ([…]), either p300, CBP, PCAF, or GCN5 (Enzo Life Sciences), and 10 µg of histones (Sigma) were incubated with sodium salicylate (Sigma) in reaction buffer (50 mM HEPES, pH 8.0, 10% glycerol, 1 mM) at 30°C for 30 min and then with 0.1 mCi of ^14C acetyl-CoA at 30°C for 60 min. Reactions were stopped by adding 6x sample buffer and analyzed by SDS-PAGE. […]

acetyl NF-κBK310 = experiment: Acetylation of overexpressed NF-κB p65 in HEK293T cells, Western blot; type: cell-based; conditions: HEK293T transfected with p300 and NF-κB p65, 24 hr
Excerpt: Figure 2.

GCN5 = biological target: T2, GCN5 (Homo sapiens, UniProt Q92830); experiment: In vitro HAT assay with recombinant GCN5, histones and 14C acetyl-CoA; type: biochemical
T2 construct: purchased Enzo Life Sciences
Description: as §1, §2, §3

Kasumi-1 cells = experiment: Kasumi-1 xenograft model in SCID mice; type: in vivo
Description: Figure 5. […] (A) and (B) Plots of tumor volume (A) and body weight (B). (C) and (D) Tumor size (C) and body weight (D) at sacrifice after 3 weeks of treatment. DOI: http://dx.doi.org/10.7554/eLife.11156.012
Severe combined immunodeficiency (SCID) mice were injected with 30 million Kasumi-1 cells in 100 μl of PBS and 100 μl of Matrigel. […] Tumor volume and body weight were recorded every 2 days. After 3 weeks of treatment, the mice were killed and tumor size and body weight were recorded. All mice were maintained according to National Institutes of Health guidelines and all animal use protocols were approved by the Institutional Animal Care and Use Committee.

[1] = 50 or 100 mg/kg orally, daily, 3 weeks

T1 sequence (Q92831 whole entry, species assumed): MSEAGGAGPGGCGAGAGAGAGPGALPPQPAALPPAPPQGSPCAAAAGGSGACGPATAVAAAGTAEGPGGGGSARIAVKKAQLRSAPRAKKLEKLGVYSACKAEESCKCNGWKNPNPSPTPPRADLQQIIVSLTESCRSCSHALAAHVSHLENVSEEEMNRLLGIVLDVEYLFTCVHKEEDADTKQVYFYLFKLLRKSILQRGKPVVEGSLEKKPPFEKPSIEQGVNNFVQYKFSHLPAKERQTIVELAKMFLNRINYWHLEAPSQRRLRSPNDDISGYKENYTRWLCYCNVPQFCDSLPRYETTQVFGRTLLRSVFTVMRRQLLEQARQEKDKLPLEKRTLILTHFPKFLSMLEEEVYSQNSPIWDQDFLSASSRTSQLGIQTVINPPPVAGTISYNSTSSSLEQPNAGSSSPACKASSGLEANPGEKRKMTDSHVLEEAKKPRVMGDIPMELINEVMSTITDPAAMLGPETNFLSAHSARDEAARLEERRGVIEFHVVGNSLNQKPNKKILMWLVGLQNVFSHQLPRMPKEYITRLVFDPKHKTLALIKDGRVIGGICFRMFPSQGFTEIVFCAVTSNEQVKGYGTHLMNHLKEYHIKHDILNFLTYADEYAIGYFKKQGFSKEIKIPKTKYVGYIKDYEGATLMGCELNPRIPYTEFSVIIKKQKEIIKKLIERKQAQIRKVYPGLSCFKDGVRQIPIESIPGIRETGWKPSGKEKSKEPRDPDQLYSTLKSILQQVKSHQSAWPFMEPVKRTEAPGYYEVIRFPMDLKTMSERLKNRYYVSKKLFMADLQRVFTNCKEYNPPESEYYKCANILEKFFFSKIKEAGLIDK
T2 sequence (Q92830 whole entry, species assumed): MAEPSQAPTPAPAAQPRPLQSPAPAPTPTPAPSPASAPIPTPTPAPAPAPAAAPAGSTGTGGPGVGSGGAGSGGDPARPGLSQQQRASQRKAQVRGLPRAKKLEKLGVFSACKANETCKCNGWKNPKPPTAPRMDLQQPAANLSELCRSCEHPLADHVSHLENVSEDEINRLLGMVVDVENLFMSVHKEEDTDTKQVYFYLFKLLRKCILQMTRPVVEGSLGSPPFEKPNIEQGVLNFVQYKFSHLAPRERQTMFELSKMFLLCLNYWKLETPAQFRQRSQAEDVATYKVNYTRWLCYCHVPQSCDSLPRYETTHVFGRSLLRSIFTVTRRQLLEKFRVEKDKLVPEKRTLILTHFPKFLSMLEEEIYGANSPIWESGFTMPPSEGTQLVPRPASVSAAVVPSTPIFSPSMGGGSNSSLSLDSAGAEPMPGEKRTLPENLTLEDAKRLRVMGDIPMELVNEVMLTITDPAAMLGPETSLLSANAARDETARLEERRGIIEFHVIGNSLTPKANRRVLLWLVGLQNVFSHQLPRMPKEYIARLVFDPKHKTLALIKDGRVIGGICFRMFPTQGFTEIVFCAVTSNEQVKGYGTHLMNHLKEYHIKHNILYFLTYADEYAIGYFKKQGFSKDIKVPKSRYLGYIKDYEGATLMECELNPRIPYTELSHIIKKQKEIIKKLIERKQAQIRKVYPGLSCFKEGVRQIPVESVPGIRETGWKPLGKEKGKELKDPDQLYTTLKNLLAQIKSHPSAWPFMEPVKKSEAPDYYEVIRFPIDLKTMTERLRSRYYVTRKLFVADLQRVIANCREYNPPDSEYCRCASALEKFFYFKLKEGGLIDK

SMILES: O=C(O)c1ccccc1O [salicylate, salicylic acid]
- Inhibition of PCAF acetyltransferase (PCAF): did not detectably inhibit
- Acetylation of NF-κB p65 K310 (acetyl NF-κBK310): decreased acetylation
- Inhibition of GCN5 acetyltransferase (GCN5): did not detectably inhibit

SMILES: O=C(O)c1cc(-c2ccc(F)cc2F)ccc1O [diflunisal]
- Effect on body weight (Kasumi-1 cells; [1]): minimal effects on body weight
- Tumor volume (Kasumi-1 cells; [1]): reduced tumor volumes in a dose-dependent manner
- Tumor size versus vehicle-treated controls (Kasumi-1 cells; after 3 weeks of treatment): significantly smaller
- Tumors at sacrifice (Kasumi-1 cells; higher dose (100 mg/kg), after 3 weeks of treatment): most of the tumors had disappeared
